{
  "source": "ChEMBL document CHEMBL1150109",
  "about": "“New cytotoxic coumarins and prenylated benzophenone derivatives from the bark of Ochrocarpos punctatus from the Madagascar rainforest” (J Nat Prod, 2002)",
  "data": [
    {"tested_on": "A2780", "assay": "Cytotoxicity against human A2780 cells", "type": "functional, cell-based", "units": {"IC50": "µg/mL"}, "values": [
      {"molecule": "CCC(C)C(=O)c1c2c(c3oc(=O)cc(-c4ccccc4)c3c1O)CC(C(C)(C)O)O2", "note": "(stereo unspecified)", "IC50": 8.2},
      {"molecule": "CC(C)CC(=O)c1c2c(c3oc(=O)cc(-c4ccccc4)c3c1O)CC(C(C)(C)O)O2", "note": "(stereo unspecified)", "IC50": 6.4},
      {"molecule": "CCC(C)C(=O)c1c2c(c3oc(=O)cc(-c4ccccc4)c3c1O)C=CC(C)(C)O2", "note": "(stereo unspecified)", "IC50": 4.5},
      {"molecule": "CCCC(=O)c1c2c(c3oc(=O)cc(-c4ccccc4)c3c1O)CC(C(C)(C)O)O2", "note": "(stereo unspecified)", "IC50": 4.4},
      {"molecule": "CC(C)=CCC1CC2(CC=C(C)C)C(=O)C3=C(OC(C)(C)C(OO)C3)C(C(=O)c3ccccc3)(C2=O)C1(C)C", "note": "(stereo unspecified)", "IC50": 8.4},
      {"molecule": "CCC(OC(C)=O)c1cc(=O)oc2c3c(c(C(=O)[C@@H](C)CC)c(O)c12)OC(C(C)(C)O)C3", "note": "(single isomer, unassigned) [OCHROCARPIN G]", "IC50": 8.6},
      {"molecule": "CC(C)C(=O)c1c2c(c3oc(=O)cc(-c4ccccc4)c3c1O)C=CC(C)(C)O2", "note": "[MESUAGIN]", "IC50": 10.8},
      {"molecule": "CC[C@H](C)C(=O)c1c(O)c2c(-c3ccccc3)cc(=O)oc2c2cc(C(C)(C)O)oc12", "note": "[OCHROCARPIN A]", "IC50": 5.2},
      {"molecule": "CC(C)CC(=O)c1c(O)c2c(-c3ccccc3)cc(=O)oc2c2cc(C(C)(C)O)oc12", "note": "[OCHROCARPIN B]", "IC50": 3.8},
      {"molecule": "CC(C)C(=O)c1c(O)c2c(-c3ccccc3)cc(=O)oc2c2cc(C(C)(C)O)oc12", "note": "[OCHROCARPIN C]", "IC50": 3.7},
      {"molecule": "CC[C@H](C)C(=O)c1c(O)c2c(-c3ccccc3)cc(=O)oc2c2cc(C(C)(C)OC)oc12", "note": "[OCHROCARPIN D]", "IC50": 6.3},
      {"molecule": "CC(C)C(=O)c1c(O)c2c(c3c(-c4ccccc4)cc(=O)oc13)OC(C(C)(C)O)C2", "note": "(stereo unspecified) [OCHROCARPIN E]", "IC50": 4.9},
      {"molecule": "CC[C@H](C)C(=O)c1c2c(c3oc(=O)cc([C@@H](CC)OC(C)=O)c3c1O)CC(C(C)(C)O)O2", "note": "(stereo partly specified) [OCHROCARPIN F]", "IC50": 8.9},
      {"molecule": "CC(C)=CCC1CC2(CC=C(C)C)C(=O)C(C(=O)c3ccccc3)(C(=O)C3=C2OC(C)(C)C(OO)C3)C1(C)C", "note": "(stereo unspecified) [OCHROCARPINONE A]", "IC50": 6.9},
      {"molecule": "CC(C)=CCC1CC2(CC=C(C)C)C(=O)C3=C(OC(C(C)(C)O)C3)C(C(=O)c3ccccc3)(C2=O)C1(C)C", "note": "(stereo unspecified) [OCHROCARPINONE B]", "IC50": 7.4},
      {"molecule": "CC(C)=CCC1CC2(CC=C(C)C)C(=O)C(C(=O)c3ccccc3)(C(=O)C3=C2OC(C(C)(C)O)C3)C1(C)C", "note": "(stereo unspecified) [OCHROCARPINONE C]", "IC50": 8.2}
    ]}
  ]
}
